The subject of one series is TNF-α. Description: TNF-α inhibition in LPS-stimulated activated U937 cells (ELISA). The class given is cell-based. Conditions: Homo sapiens, U-937, Example 3. The protocol:
A human myeloid leukemia cell line U937 (Rockville, Md.) was obtained from ATCC. The cell line was cultured in a RPMI 1640 medium with a 10% fetal calf serum (FCS) at 37° C., 5% CO2. The cell line maintained in exponential growth. For inducing differentiation, the cells with a starting concentration of 4×10^5 cell/ml were cultured in T150 containing 50 ng/ml PMA (Sigma) for 24 hours. Subsequently, the cells were moved to a fresh medium without PMA and cultured for 48 hours. The cells were collected with rubber policeman (Bellco Glass, Vineland, N.J.) gently scraping the medium bottle for the next step.
The activated U937 cells were seeded into a 96-well plate to form a concentration of 1.6×10^5 cell/well. The ethanol extracts of Cynanchum hancockianum in different concentrations were respectively added 10 μl to the 96-well plate. The final volume of each well was 190 μl. The plate was cultured at 37° C., 5% CO2 for 30 min. Then each well was added 2 μg/ml of lipopolysaccharide (LPS) in PBS 10 μl and cultured at 37° C. for 4 hours. […] The amount of TNF-α was analyzed by an ELISA (TNF-α duoset, R&D, Minneapolis, Minn.). […]
The activated U937 cells obtained from Example 2 were seeded into a 96-well plate to form a concentration of 1.6×10^5 cell/well. […] The amount of TNF-α was analyzed by an ELISA and cell viability was tested by MTT. […]

The test system of series [1] is collagen-induced arthritis model. As to the kind of experiment: Collagen-induced arthritis model, morbidity and onset. The class given is in vivo, rat. The method, then: (§1) 50 μg of a fetus bovine type II collagen (CII, Chondrex) was emulsified in a complete Freund's adjuvant (CFA, Sigma). The ankle volume was measured as the basis of a hindpaw volume. On the eighth day after the primary immune, each rat was injected with 100 μg of the collagen emulsified in IFA (Sigma) to induce arthritis. The carrier control group was i.p. injected with 2 ml/kg of 0.5% CMC rats every two days until day 21. The experimental group was […] antofine isolated from Example 1 according to the following regimes: Group 1 was i.p. injected with 3 mg/kg of antofine every two days until Day 20 and then i.p. injected with 3 mg/kg of antofine per day on Day 21˜23; Group 2 was i.p. injected with 3 mg/kg of antofine every three days until Day 20 and then i.p. injected with 3 mg/kg of antofine per day on Day 21˜23; Group 3 was i.p. injected with 2 mg/kg of antofine every two days until Day 20 and then i.p. injected with 3 mg/kg of antofine per day on Day 21˜23; Group 4 was i.p. injected with 3 mg/kg of antofine per day for 5 days, and then stop administration on the next nine days, and i.p. injected with 3 mg/kg of antofine per day on Day 21˜23.; and All rats were scarified on Day 24.

The nature of series [2]: Weight changes in collagen-induced arthritis model. The class given is in vivo, rat. As to conditions: various doses of antofine and regimes (Groups 1-4), i.p., rats. The protocol: as §1

In brackets after ≈: the same amount, converted by molar mass.

For orientation: IC50 means the concentration that inhibits the measured activity by half. A low value points to higher potency. Turning to `COc1ccc2c3c(c4cc(OC)c(OC)cc4c2c1)C[C@H]1CCCN1C3` [antofine, (−)-antofine], the IC50 with TNF-α was determined as 7 ng/mL (≈ 0.0193 µM). Further, the “Morbidities and onset of arthritis” value in series [1] (Group 1: 3 mg/kg i.p. every two days until Day 20, then 3 mg/kg per day on Day 21-23) was “decreased morbidities and delayed onsets”; in series [1] (Group 4: 3 mg/kg i.p. per day for 5 days, stop nine days, 3 mg/kg per day on Day 21-23) it was “decreased morbidities and delayed onsets”. Further, in series [2], the Weight changes result is listed as “not greatly changed”.
